Experimental data as given in patent US10214502B2, “Method of inhibiting apolipoprotein-E expression while increasing expression of at least one of LDL-receptor protein or AbcA1 protein comprising administering a small compound” (California State University, Fresno, priority 2016, dated 2019).

What was measured:
[1] = system: AbcA1; assay: SDS-PAGE/Western blot of AbcA1 expression in E3 astrocyte cells; type: cell-based, mouse; conditions: 10 μM, 24 hrs, Western blot, FIGS. 6 and 7
Excerpt: (§1) Western blot protocol and analysis was used to determine the LDLR levels in the E3 astrocyte cells. The western blot, otherwise known as a protein immunoblot, is a widely used analytical technique used to detect specific proteins in a cell culture or tissue sample. It uses gel electrophoresis to separate proteins by 3-D structure or denatured proteins by the length of the polypeptide. The proteins are then transferred to a membrane (typically nitrocellulose or PVDF), where they are stained with antibodies specific to the target protein. […] FIGS. 6 and 7 show gel images showing the effects the claimed compounds have on the target proteins. The protein bands show the presence and amount of each target protein present in the media from treated cells (compound numbers shown in the column headers).
(§2) In this case, after the 24-hour culture period, the treated cell media from cells treated with each respective compound were run by electrophoresis on polyacrylamide gel containing sodium dodecyl sulfate (SDS). The proteins from the SDS-PAGE process were then transferred to a nitrocellulose […] and stained.
(§3) FIGS. 6 and 7 show the presence of the following proteins in mouse E3 astrocyte cells: AbcA1, LDLR, ApoE3, and GAPDH. The GAPDH protein serves as the loading control protein for the western blot analysis. For each of the claimed compounds, FIGS. 6 and 7 show three samples run to determine the presence and amount of each indicated protein. The three samples for each treatment compound are indicated by the line under the compound number—the line stretches across three columns of protein bands.
AbcA1 protein plays a key role in regulating cholesterol in biological systems and therefore affects amyloid beta plaque formation. The goal of the biological screen (results shown in FIGS. 6 and 7) was to find compounds that prevent amyloid beta (Aβ) plaque formation, one of the deleterious causes of Alzheimer's Disease.
(§4) The E3 astrocyte cells (1.6×10^4 cells/96-well plate) were grown for 1 day in RPMI, followed by a 24 hour equilibration in serum-free Opti-MEM (Life Technologies). Treatments were carried out in triplicate with […] of fresh Opti-MEM containing 10 μM of compound or vehicle (0.1% DMSO) for 24 hours. After the incubation time, the cellular media was collected as samples.
(§5) The collected samples were prepared for SDS-PAGE and western blot analysis by centrifuging and then extracting the protein by TCA-precipitation. The extracted protein was then resuspended in a Tris buffer.
(§6) After incubation and collection, the samples were run on a SDS-polyacrylamide gel (10% SDS). The SDS-polyacrylamide gel comprises the following:
(§7) Each sample was prepared to run on the SDS-polyacrylamide gel. About 20 μL of each sample was prepared to be run in the gel. The samples were prepared comprising the following:
(§8) The SDS-PAGE process was run with SDS-PAGE running buffer (Tris base, glycine, and 10% SDS) at 150 V until the dye front reached the bottom of the gel.
(§9) For the western blot portion of the analysis, the separated protein bands in the gel are then transferred to a nitrocellulose membrane by methods well known in the art. Following the western blot transfer, the blot is rinsed several times with dH2O to remove the salts. After blocking unreacted sites on the nitrocellulose membrane, all protein bands are stained with 0.5% Ponceau S (0.5 g Ponceau S, 1 ml Glacial HAc, 99 ml dH2O) and the target protein antibody.
(§10) The antibodies used for staining AbcA1 were obtained from Novus (NB100-2068). The antibodies used for staining LDLR were obtained from MBL International (JM-3839). The antibodies used for staining intracellular apoE were obtained from Meridian Life Science (K74180B). The antibodies used for staining GAPDH were obtained from Santa Cruz (sc-25778).

[2] = system: intracellular apoE; assay: SDS-PAGE/Western blot of intracellular apoE levels in E3 astrocyte cells; type: cell-based, mouse; conditions: 10 μM, 24 hrs, Western blot, FIGS. 6 and 7
Excerpt: as §1, §2
FIGS. 6 and 7 show the presence of the following proteins in mouse E3 astrocyte cells: AbcA1, LDLR, ApoE3, and GAPDH. […]
Intracellular apoE levels as measured in FIGS. 6 and 7 are the amounts of apoE inside of cells. […]

[3] = system: apoE3; assay: ELISA of apoE3 levels in conditioned media of compound-treated mouse cortical astrocyte cells; type: cell-based; conditions: 10 μM compound, 24 hours, normalized to cell protein, relative to DMSO treated cells
Experimental: ApoE inhibition can be readily determined by any one of several assays and techniques known to those of ordinary skill in the art, including the enzyme-linked immunosorbant assay (ELISA). In the experimental results shown in Table 2 and FIG. 5, the ELISA assay was carried out on cortical astrocyte cells from mice. Astrocyte cells produce apoE, LDLR and AbcA1 proteins.
The experiments involved treating mouse cortical astrocyte cells with the claimed compounds at 10 μM concentration for an incubation time of 24 hrs. DMSO solvent was used as a negative control, because the compounds were dissolved in DMSO when applied to the cells.
The ELISA technique involves immobilizing an apoE-specific capture antibody to a 96-well plate, addition of sample (conditioned medium from mouse cortical astrocyte cells treated with the compound for 24 hours), and detection of the bound apoE using a second apoE-specific biotinylated antibody and streptavidin-HRP.
The Mabtech ELISA kit detects the presence of the three apoE isoforms: apoE2, apoE3, and apoE4.
To obtain the data shown in Table 2 and FIG. 5, the mouse cortical astrocyte cells were maintained in DMEM medium (Invitrogen) supplemented with 10 mM HEPES, 1 mM sodium pyruvate, 4.5 g/L glucose, 1% penicillin/streptomycin, and 10% fetal bovine growth serum (Invitrogen) at 37° C., with 5% CO2.
The cells (6×10^4 cells/24-well plate) were grown for 1 day in RPMI, followed by a 24 hour equilibration in serum-free Opti-MEM (Life Technologies). Treatments were carried out in triplicate with […] of fresh Opti-MEM containing 10 μM of compound or vehicle (0.1% DMSO) for 24 hours. […] ApoE concentration in the sample was calculated based on a standard curve derived using known amounts of purified apoE (from Biodesign).
The protein levels in the cells in the 24-well plates were measured using BCA Protein Assay Kit (from Pierce) and used to normalize the data. […] Sample apoE3 concentrations were represented relative to the DMSO treated cells.
The bars in FIG. 5 reflect the respective mean level apoE3 in the media for each compound with an indication of one […].

[4] = system: LDLR; assay: SDS-PAGE/Western blot of LDLR expression in E3 astrocyte cells; type: cell-based, mouse; conditions: 10 μM, 24 hrs, Western blot, FIGS. 6 and 7
Experimental: Experiments were set up to test whether the claimed compounds increase LDLR expression in cortical astrocyte cells. The experiments involved treating mouse cortical astrocyte cells (E3 astrocyte cells) with the claimed compounds at 10 μM concentration for an incubation time of 24 hrs. DMSO solvent was used as a negative control, because the compounds were dissolved in DMSO when applied to the cells.
as §1, §2, §3, §4, §5, §6, §7, §8, §9, §10

## CCCCN(CCCC)S(=O)(=O)c1cccc2ccccc12 [Compound 127, naphthalene-1-sulfonic acid dibutylamide]
[1]
  AbcA1 expression compared to the DMSO control: increases
[2]
  intracellular apoE expression/levels compared to the DMSO control: decreasing
[3]
  ApoE3 Levels in Cell Media, Average of Three Tests: 75.73 % of the DMSO control
  ApoE3 Levels in Cell Media, Test 1: 75.36 % of the DMSO control
  ApoE3 Levels in Cell Media, Test 2: 78.18 % of the DMSO control
  ApoE3 Levels in Cell Media, Test 3: 73.66 % of the DMSO control
[4]
  LDLR expression (amount of LDLR protein) compared to the DMSO control: increased

## O=S(=O)(Nc1ccc(Br)cc1)c1ccc2ccccc2c1 [Compound 103]
[1]
  AbcA1 expression compared to the DMSO control: increase
[3]
  ApoE3 Levels in Cell Media, Average of Three Tests: 109.1222 % of the DMSO control
  ApoE3 Levels in Cell Media, Test 1: 84.78 % of the DMSO control
  ApoE3 Levels in Cell Media, Test 2: 113.1319 % of the DMSO control
  ApoE3 Levels in Cell Media, Test 3: 129.4577 % of the DMSO control
[4]
  LDLR expression (amount of LDLR protein) compared to the DMSO control: increased
